# Source: PubChem BioAssay (NCI)
#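 Exposure lasted 48 hours, with cells grown in 96-well plates and compounds tested at five concentrations. Here, GI50 denotes the concentration required for 50% inhibition of growth. The concentration for full growth arrest is given as TGI.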
# Columns and labels:
# Assay in all cases: NCI tumour cell line growth inhibition, 48 h
# [1] = tested on: OVCAR-8 ovarian
# [2] = tested on: COLO 205 colon
# [3] = tested on: SF-268 CNS
# [4] = tested on: SNB-19 CNS
# [5] = tested on: SN12C renal
# [6] = tested on: SNB-75 CNS
# [7] = tested on: M14 melanoma
# [8] = tested on: NCI-H522 lung
# [9] = tested on: SF-295 CNS
# [10] = tested on: K-562 leukemia
# [11] = tested on: RXF 393 renal
# [12] = tested on: RPMI-8226 leukemia
# [13] = tested on: MOLT-4 leukemia
# [14] = tested on: UACC-257 melanoma
# [15] = tested on: SK-OV-3 ovarian
# [16] = tested on: IGROV1 ovarian
# [17] = tested on: HT29 colon
# [18] = tested on: OVCAR-5 ovarian
# [19] = tested on: NCI/ADR-RES ovarian
# [20] = tested on: A549 NSCLC
# [21] = tested on: ACHN renal
# [22] = tested on: SF-539 CNS
# [23] = tested on: OVCAR-4 ovarian
# [24] = tested on: 786-0 renal
# [25] = tested on: UO-31 renal
# [26] = tested on: CAKI-1 renal
# [27] = tested on: LOX IMVI melanoma
# [28] = tested on: KM12 colon
# [29] = tested on: EKVX NSCLC
# [30] = tested on: SK-MEL-5 melanoma
# [31] = tested on: UACC-62 melanoma
# [32] = tested on: U251 CNS
# [33] = tested on: DU-145 prostate
# [34] = tested on: NCI-H23 lung
# [35] = tested on: BT-549 breast
# [36] = tested on: HCT-116 colon
# [37] = tested on: MDA-MB-231 breast
# [38] = tested on: OVCAR-3 ovarian
# [39] = tested on: NCI-H226 lung
# [40] = tested on: MCF7 breast
# [41] = tested on: HCT-15 colon
# [42] = tested on: HCC-2998 colon
# [43] = tested on: PC-3 prostate
# [44] = tested on: HL-60(TB) leukemia
# [45] = tested on: HOP-92 NSCLC
# [46] = tested on: MALME-3M melanoma
# [47] = tested on: T-47D breast
# [48] = tested on: TK-10 renal
# [49] = tested on: SR leukemia
# [50] = tested on: SK-MEL-28 melanoma
# [51] = tested on: SK-MEL-2 melanoma
# [52] = tested on: HOP-62 NSCLC
# [53] = tested on: CCRF-CEM leukemia
# [54] = tested on: MDA-MB-435
smiles,measurement,setting,value
CC/C=C1/C(=O)C=C[C@@H]1C/C=C\CCCC(=O)OC,GI50,[1],3.72 µM
same,TGI,[1],14.9 µM
same,GI50,[2],2.4 µM
same,TGI,[2],5.18 µM
same,GI50,[3],3.03 µM
same,TGI,[3],13.1 µM
same,GI50,[4],3.27 µM
same,TGI,[4],12.9 µM
same,GI50,[5],3.08 µM
same,TGI,[5],8.58 µM
same,GI50,[6],12.9 µM
same,TGI,[6],33.2 µM
same,GI50,[7],2.8 µM
same,TGI,[7],10.8 µM
same,GI50,[8],1.56 µM
same,TGI,[8],3.57 µM
same,GI50,[9],2.6 µM
same,TGI,[9],6.76 µM
same,GI50,[10],0.767 µM
same,TGI,[10],> 100 µM
same,GI50,[11],2.03 µM
same,TGI,[11],3.9 µM
same,GI50,[12],0.699 µM
same,TGI,[12],5.54 µM
same,GI50,[13],1.37 µM
same,TGI,[13],8.11 µM
same,GI50,[14],2.51 µM
same,TGI,[14],7.1 µM
same,GI50,[15],7.15 µM
same,TGI,[15],19.5 µM
same,GI50,[16],3.76 µM
same,TGI,[16],15.8 µM
same,GI50,[17],2.25 µM
same,TGI,[17],5.3 µM
same,GI50,[18],4.73 µM
same,TGI,[18],15.1 µM
same,GI50,[19],2.88 µM
same,TGI,[19],14.5 µM
same,GI50,[20],13.3 µM
same,TGI,[20],29.5 µM
same,GI50,[21],2.27 µM
same,TGI,[21],4.57 µM
same,GI50,[22],3.66 µM
same,TGI,[22],13.7 µM
same,GI50,[23],5.24 µM
same,TGI,[23],18 µM
same,GI50,[24],2.56 µM
same,TGI,[24],6.59 µM
same,GI50,[25],2.24 µM
same,TGI,[25],5.43 µM
same,GI50,[26],2.7 µM
same,TGI,[26],7.45 µM
same,GI50,[27],0.505 µM
same,TGI,[27],1.91 µM
same,GI50,[28],2.08 µM
same,TGI,[28],5.06 µM
same,GI50,[29],4.8 µM
same,TGI,[29],16.8 µM
same,GI50,[30],1.77 µM
same,TGI,[30],3.2 µM
same,GI50,[31],1.97 µM
same,TGI,[31],4.6 µM
same,GI50,[32],2.75 µM
same,TGI,[32],9.96 µM
same,GI50,[33],4.56 µM
same,TGI,[33],16.4 µM
same,GI50,[34],2.17 µM
same,TGI,[34],5.86 µM
same,GI50,[35],2.84 µM
same,TGI,[35],8.15 µM
same,GI50,[36],0.447 µM
same,TGI,[36],2.4 µM
same,GI50,[37],4.43 µM
same,TGI,[37],15.4 µM
same,GI50,[38],3.05 µM
same,TGI,[38],10.2 µM
same,GI50,[39],13.7 µM
same,TGI,[39],31.2 µM
same,GI50,[40],1.21 µM
same,TGI,[40],11 µM
same,GI50,[41],1.94 µM
same,TGI,[41],5.31 µM
same,GI50,[42],2.13 µM
same,TGI,[42],3.83 µM
same,GI50,[43],3.02 µM
same,TGI,[43],8.56 µM
same,GI50,[44],2.17 µM
same,TGI,[44],6.94 µM
same,GI50,[45],12.1 µM
same,TGI,[45],25.1 µM
same,GI50,[46],2.92 µM
same,TGI,[46],9.06 µM
same,GI50,[47],3.79 µM
same,TGI,[47],16.7 µM
same,GI50,[48],4.07 µM
same,TGI,[48],14.5 µM
same,GI50,[49],0.563 µM
same,GI50,[50],2.52 µM
same,TGI,[50],6.27 µM
same,GI50,[51],2.24 µM
same,TGI,[51],6.94 µM
same,GI50,[52],3.39 µM
same,TGI,[52],11.9 µM
same,GI50,[53],0.519 µM
same,TGI,[53],10.6 µM
same,GI50,[54],1.86 µM
same,TGI,[54],4.6 µM
